{"source": "patent US20100016294A1", "about": "“METHODS FOR REDUCING THE RISK OF AN ADVERSE DRUG I[…] A PATIENT SUFFERING FROM INSOMNIA” (QUESTCOR PHARMACEUTICALS, INC., priority 2008, published 2010)", "target": "T1, CYP2B6 (Homo sapiens, UniProt P20813)", "T1 sequence (P20813 1-491)": "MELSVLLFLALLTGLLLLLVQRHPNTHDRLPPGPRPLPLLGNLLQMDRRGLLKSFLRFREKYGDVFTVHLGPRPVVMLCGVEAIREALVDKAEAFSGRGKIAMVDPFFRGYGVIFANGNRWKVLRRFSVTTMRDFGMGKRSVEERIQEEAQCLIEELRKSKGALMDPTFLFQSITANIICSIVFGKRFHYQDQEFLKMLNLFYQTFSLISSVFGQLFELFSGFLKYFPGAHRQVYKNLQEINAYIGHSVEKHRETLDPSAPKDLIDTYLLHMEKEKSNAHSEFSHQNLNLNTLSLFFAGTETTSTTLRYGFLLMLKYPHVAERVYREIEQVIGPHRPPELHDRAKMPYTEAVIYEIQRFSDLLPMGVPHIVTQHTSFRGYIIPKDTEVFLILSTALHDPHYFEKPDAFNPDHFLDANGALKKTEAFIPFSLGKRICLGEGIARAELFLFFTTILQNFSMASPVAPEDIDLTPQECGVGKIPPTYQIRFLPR", "test": "Direct inhibition of CYP2B6 (Bupropion hydroxylase) activity in pooled human liver microsomes", "details": "pH 7.4, probe Bupropion (hydroxylation to hydroxyBupropion)", "procedure": "The total amount of organic solvent was ≦1%. Each incubation included 0.1 M phosphate buffer (pH 7.4), substrate, inhibitor and microsomal protein in a final volume of approximately 0.5 mL. Reactions were initiated by addition of NADPH (1 mM final concentration) and incubated for the indicated times at 37° C. with gentle agitation.\nControl incubations included positive inhibitor control samples for direct inhibition as well as samples without NADPH. All reactions were terminated by the addition of organic solvent, and internal standard was added (when appropriate), and samples were mixed and centrifuged at approximately 3000 rpm for 10 minutes. The organic layer was transferred to a clean tube and evaporated to dryness at about 40° C. under nitrogen. The sample was reconstituted and analyzed by LC MS/MS.\nIncubations to determine CYP2B6-mediated conversion of Bupropion to hydroxyBupropion (OHBP) in microsomal preparations were terminated by addition of 2.5 mL isoamyl alcohol: ethyl acetate (1:100, v:v). The internal standard, hydroxyBupropion-d6, and a saturated sodium chloride solution (0.25 mL) were added to all samples. […]\nReaction velocities (V) were calculated using Equation 1:\nV(nmol/min/mg)=calculated ng/mL×0.5mL/(MW ng/nmol)/min/mg Equation 1\nPercentage of remaining activity was determined using the following equation: […]"}
{"smiles": "S=P(N1CC1)(N1CC1)N1CC1", "note": "[Positive Control, ThioTEPA]", "values": [{"measurement": "activity at 75 μM", "value": 22.8, "unit": "%"}]}
